Results from ChEMBL document CHEMBL1909046, “DrugMatrix in vitro pharmacology data”.

How the values were obtained:
[1] = DRUGMATRIX: GABAA, Muscimol, Central radioligand binding (ligand: [3H] Muscimol); type: cell membranes, Rattus norvegicus, Wistar, Brain, Membrane; conditions: Not Active = under 50% inhibition at 10 µM
Substance-P receptor = Substance-P receptor (Homo sapiens, UniProt P25103); type: cell membranes, Membrane; conditions: cho; note: in other assays of this panel Not Active means under 50% inhibition at 10 µM
Endothelin-1 receptor = target: T1, Endothelin-1 receptor (Homo sapiens, UniProt P25101); type: cell membranes, Membrane; conditions: cho-k1; note: in other assays of this panel Not Active means under 50% inhibition at 10 µM
T1 sequence (P25101 whole entry): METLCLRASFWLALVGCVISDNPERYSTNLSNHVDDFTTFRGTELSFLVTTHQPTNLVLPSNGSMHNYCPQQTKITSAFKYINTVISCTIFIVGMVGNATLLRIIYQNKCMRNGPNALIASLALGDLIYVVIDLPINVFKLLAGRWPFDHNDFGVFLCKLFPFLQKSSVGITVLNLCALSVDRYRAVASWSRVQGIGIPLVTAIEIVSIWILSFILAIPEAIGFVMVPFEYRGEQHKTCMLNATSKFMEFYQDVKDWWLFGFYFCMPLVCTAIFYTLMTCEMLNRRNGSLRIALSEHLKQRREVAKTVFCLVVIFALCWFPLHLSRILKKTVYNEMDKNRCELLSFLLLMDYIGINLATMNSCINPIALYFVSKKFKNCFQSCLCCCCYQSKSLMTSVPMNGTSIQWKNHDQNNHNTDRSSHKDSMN

[2] = DRUGMATRIX: Atrial Natriuretic Factor (ANF) radioligand binding (ligand: [125I] ANF (rat)); type: cell membranes, Cavia porcellus, Dunkin-Hartley, Adrenal gland, Membrane; conditions: Not Active = under 50% inhibition at 10 µM
[3] = DRUGMATRIX: Platelet-Derived Growth Factor (PDGF) radioligand binding (ligand: [125I] PDGF); type: cell-based; conditions: nih3t3; Not Active = under 50% inhibition at 10 µM
D(1A) dopamine receptor = D(1A) dopamine receptor (Homo sapiens, UniProt P21728); test: DRUGMATRIX: Dopamine D1 radioligand binding (ligand: [3H] SCH-23390); type: cell membranes, CHO, Membrane; conditions: Not Active = under 50% inhibition at 10 µM
[4] = target: Voltage-gated inwardly rectifying potassium channel KCNH2 (Homo sapiens, UniProt Q12809); conditions: hek293; note: in other assays of this panel Not Active means under 50% inhibition at 10 µM
[5] = target: Delta-type opioid receptor (Homo sapiens, UniProt P41143); type: cell membranes, HEK293, Membrane; note: in other assays of this panel Not Active means under 50% inhibition at 10 µM
Chain of Delta-type opioid receptor (P41143 whole entry): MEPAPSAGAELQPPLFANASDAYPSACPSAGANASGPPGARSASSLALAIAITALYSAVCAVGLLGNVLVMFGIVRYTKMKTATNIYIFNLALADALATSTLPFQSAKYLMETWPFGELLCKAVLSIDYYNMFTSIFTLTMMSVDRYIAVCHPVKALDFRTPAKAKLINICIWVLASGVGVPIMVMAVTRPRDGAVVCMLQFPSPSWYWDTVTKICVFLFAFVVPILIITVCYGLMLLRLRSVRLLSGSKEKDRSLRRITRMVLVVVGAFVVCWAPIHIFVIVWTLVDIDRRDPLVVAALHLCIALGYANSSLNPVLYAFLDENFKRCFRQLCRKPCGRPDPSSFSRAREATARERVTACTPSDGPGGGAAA

Chain of D(1A) dopamine receptor (P21728 whole entry): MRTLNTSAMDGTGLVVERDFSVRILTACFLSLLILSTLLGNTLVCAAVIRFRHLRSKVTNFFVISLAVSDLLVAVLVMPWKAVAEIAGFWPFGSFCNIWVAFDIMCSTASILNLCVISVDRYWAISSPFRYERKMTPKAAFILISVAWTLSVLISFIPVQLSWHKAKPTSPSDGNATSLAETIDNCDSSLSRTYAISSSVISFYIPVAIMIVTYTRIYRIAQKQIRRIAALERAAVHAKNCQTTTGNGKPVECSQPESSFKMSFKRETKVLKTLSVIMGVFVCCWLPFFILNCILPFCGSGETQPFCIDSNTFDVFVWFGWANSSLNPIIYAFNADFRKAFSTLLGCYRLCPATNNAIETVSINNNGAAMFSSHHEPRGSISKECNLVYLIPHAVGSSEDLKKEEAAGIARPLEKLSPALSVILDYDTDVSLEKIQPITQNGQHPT
Chain of Substance-P receptor (P25103 whole entry): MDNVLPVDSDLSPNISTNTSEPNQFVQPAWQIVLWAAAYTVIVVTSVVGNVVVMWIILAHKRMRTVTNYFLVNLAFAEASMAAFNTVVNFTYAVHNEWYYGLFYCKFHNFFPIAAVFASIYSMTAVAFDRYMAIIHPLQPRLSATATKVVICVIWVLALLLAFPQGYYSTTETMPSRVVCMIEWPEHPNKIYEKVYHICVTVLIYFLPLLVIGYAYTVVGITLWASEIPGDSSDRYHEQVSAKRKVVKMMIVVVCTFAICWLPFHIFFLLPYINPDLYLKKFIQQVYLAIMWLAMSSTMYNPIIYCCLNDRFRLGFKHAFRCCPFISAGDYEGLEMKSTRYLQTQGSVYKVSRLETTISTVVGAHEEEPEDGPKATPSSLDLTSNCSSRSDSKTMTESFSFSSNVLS
Chain of Voltage-gated inwardly rectifying potassium channel KCNH2 (Q12809 whole entry): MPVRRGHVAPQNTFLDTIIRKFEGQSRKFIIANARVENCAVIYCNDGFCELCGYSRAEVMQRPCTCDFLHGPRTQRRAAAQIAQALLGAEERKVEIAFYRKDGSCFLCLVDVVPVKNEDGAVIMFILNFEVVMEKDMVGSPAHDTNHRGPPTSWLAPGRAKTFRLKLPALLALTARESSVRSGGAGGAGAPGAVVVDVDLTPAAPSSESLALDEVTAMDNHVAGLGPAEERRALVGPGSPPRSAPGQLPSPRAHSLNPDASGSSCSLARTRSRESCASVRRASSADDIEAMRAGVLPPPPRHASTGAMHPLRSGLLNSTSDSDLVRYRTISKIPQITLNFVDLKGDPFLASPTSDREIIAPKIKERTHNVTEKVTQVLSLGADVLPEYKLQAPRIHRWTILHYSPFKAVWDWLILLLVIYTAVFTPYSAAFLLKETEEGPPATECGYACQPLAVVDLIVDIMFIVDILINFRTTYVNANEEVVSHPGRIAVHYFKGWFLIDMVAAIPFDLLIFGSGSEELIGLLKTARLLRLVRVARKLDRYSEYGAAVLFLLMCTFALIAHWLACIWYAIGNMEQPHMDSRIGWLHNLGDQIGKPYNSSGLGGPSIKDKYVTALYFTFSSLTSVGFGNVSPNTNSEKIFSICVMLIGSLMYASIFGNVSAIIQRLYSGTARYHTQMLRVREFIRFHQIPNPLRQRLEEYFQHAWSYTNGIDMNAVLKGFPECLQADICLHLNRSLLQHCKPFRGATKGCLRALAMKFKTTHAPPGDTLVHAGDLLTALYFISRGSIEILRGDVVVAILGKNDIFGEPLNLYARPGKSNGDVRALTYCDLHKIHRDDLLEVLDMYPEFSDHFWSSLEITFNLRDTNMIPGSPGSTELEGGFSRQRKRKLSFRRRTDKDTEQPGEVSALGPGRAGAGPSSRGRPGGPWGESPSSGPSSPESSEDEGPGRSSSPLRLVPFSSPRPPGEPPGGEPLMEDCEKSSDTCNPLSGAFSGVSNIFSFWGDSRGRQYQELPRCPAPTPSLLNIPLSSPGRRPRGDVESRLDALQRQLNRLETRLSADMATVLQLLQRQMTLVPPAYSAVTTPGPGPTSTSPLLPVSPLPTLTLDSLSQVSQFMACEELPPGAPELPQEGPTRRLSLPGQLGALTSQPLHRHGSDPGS

| Compound | IC50 [1] | Ki [1] | IC50 (Substance-P receptor) | IC50 (Endothelin-1 receptor) | IC50 [2] | Ki [2] | IC50 [3] | Ki [3] | IC50 (D(1A) dopamine receptor; cho) | IC50 [4] | Ki [4] | IC50 ([5]; hek293) | Ki (Substance-P receptor) | Ki (Endothelin-1 receptor) | Ki (D(1A) dopamine receptor; cho) | Ki ([5]; hek293) | IC50 (D(1A) dopamine receptor; read-out: IC50) | Ki (D(1A) dopamine receptor; read-out: Ki) | IC50 ([5]; read-out: IC50) | Ki ([5]; read-out: Ki) |
| --- | --- | --- | --- | --- | --- | --- | --- | --- | --- | --- | --- | --- | --- | --- | --- | --- | --- | --- | --- | --- |
| CO[C@H]1O[C@@H]2O[C@@]3(C)CC[C@H]4[C@H](C)CC[C@@H]([C@H]1C)[C@@]24OO3 | Not Active | Not Active | Not Active | Not Active | Not Active | Not Active | Not Active | Not Active | Not Active | Not Active | Not Active | Not Active | – | – | – | – | – | – | – | – |
| O=c1[nH]c2ccccc2c2ccccc12 | Not Active | Not Active | Not Active | Not Active | Not Active | Not Active | Not Active | Not Active | Not Active | Not Active | Not Active | Not Active | – | – | – | – | – | – | – | – |
| COc1ccc(C[C@H](N)C(=O)N[C@H]2[C@@H](O)[C@H](n3cnc4c(N(C)C)ncnc43)O[C@@H]2CO)cc1 [PUROMYCIN] | Not Active | Not Active | Not Active | Not Active | Not Active | Not Active | Not Active | Not Active | Not Active | Not Active | Not Active | Not Active | – | – | – | – | – | – | – | – |
| CHROMIC CHLORIDE | Not Active | Not Active | Not Active | Not Active | Not Active | Not Active | Not Active | Not Active | Not Active | Not Active | Not Active | Not Active | Not Active | Not Active | Not Active | Not Active | – | – | – | – |
| C[C@@H]1[C@H](O)[C@@H](C)/C=C/C=C/C=C/C=C/C=C/C=C/C=C/[C@H](O[C@@H]2O[C@H](C)[C@@H](O)[C@H](N)[C@@H]2O)C[C@@H]2O[C@](O)(C[C@@H](O)C[C@@H](O)[C@H](O)CC[C@@H](O)C[C@@H](O)CC(=O)O[C@H]1C)C[C@H](O)[C@H]2C(=O)O [AMPHOTERICIN B] | Not Active | Not Active | Not Active | Not Active | Not Active | Not Active | Not Active | Not Active | Not Active | Not Active | Not Active | Not Active | – | – | – | – | – | – | – | – |
| Cc1c(N)nc([C@H](CC(N)=O)NC[C@H](N)C(N)=O)nc1C(=O)N[C@H](C(=O)N[C@H](C)[C@@H](O)[C@H](C)C(=O)N[C@H](C(=O)NCCc1nc(-c2nc(C(=O)NCCC[S+](C)C)cs2)cs1)[C@@H](C)O)[C@@H](O[C@@H]1O[C@@H](CO)[C@@H](O)[C@H](O)[C@@H]1O[C@H]1O[C@H](CO)[C@@H](O)[C@H](OC(N)=O)[C@@H]1O)c1c[nH]cn1.[Br-] [BLEOMYCIN A2] | Not Active | Not Active | Not Active | Not Active | Not Active | Not Active | Not Active | Not Active | Not Active | Not Active | Not Active | Not Active | – | – | – | – | – | – | – | – |
| O=C(O)CNCP(=O)(O)O [GLYPHOSATE] | Not Active | Not Active | Not Active | Not Active | Not Active | Not Active | Not Active | Not Active | Not Active | Not Active | Not Active | Not Active | – | – | – | – | – | – | – | – |
| Nc1nc(F)nc2c1ncn2[C@@H]1O[C@H](CO)[C@@H](O)[C@@H]1O [FLUDARABINE] | Not Active | Not Active | Not Active | Not Active | Not Active | Not Active | Not Active | Not Active | Not Active | Not Active | Not Active | Not Active | – | – | – | – | – | – | – | – |
| NCC(CC(=O)O)c1ccc(Cl)cc1 (centres undefined) [BACLOFEN] | Not Active | Not Active | Not Active | Not Active | Not Active | Not Active | Not Active | Not Active | Not Active | Not Active | Not Active | Not Active | – | – | – | – | – | – | – | – |
| O=C(Nc1ccc(Cl)c(Cl)c1)c1cc(Cl)cc(Cl)c1O [3,3',4',5-TETRACHLOROSALICYLANILIDE] | Not Active | Not Active | Not Active | Not Active | Not Active | Not Active | Not Active | Not Active | Not Active | Not Active | Not Active | Not Active | – | – | – | – | – | – | – | – |
| CC(C)NCC(O)COc1ccc(CC(N)=O)cc1 (centres undefined) [ATENOLOL] | Not Active | Not Active | Not Active | Not Active | Not Active | Not Active | Not Active | Not Active | Not Active | – | – | Not Active | – | – | – | – | – | – | – | – |
| COc1ccccc1OCCNCC(O)COc1cccc2[nH]c3ccccc3c12 (centres undefined) [CARVEDILOL] | Not Active | Not Active | Not Active | Not Active | Not Active | Not Active | Not Active | Not Active | – | – | – | Not Active | – | – | – | – | 1.5 µM | 0.749 µM | – | – |
| CCN1C[C@]2(COC)[C@H](O)C[C@H](OC)[C@@]34[C@@H]5C[C@@]6(O)[C@H](OC(=O)c7ccccc7)[C@@H]5[C@@](OC(C)=O)([C@@H]([C@H](OC)[C@H]23)[C@@H]14)[C@@H](O)[C@@H]6OC [ACONITINE] | Not Active | Not Active | Not Active | Not Active | Not Active | Not Active | Not Active | Not Active | Not Active | – | – | Not Active | – | – | – | – | – | – | – | – |
| NS(=O)(=O)c1cc(C(=O)O)c(NCc2ccco2)cc1Cl [FUROSEMIDE] | Not Active | Not Active | Not Active | Not Active | Not Active | Not Active | Not Active | Not Active | Not Active | – | – | Not Active | – | – | – | – | – | – | – | – |
| NC(N)=Nc1nc(CSCCC(N)=NS(N)(=O)=O)cs1 [FAMOTIDINE] | Not Active | Not Active | Not Active | Not Active | Not Active | Not Active | Not Active | Not Active | Not Active | – | – | Not Active | – | – | – | – | – | – | – | – |
| COc1ccc(Cl)cc1C(=O)NCCc1ccc(S(=O)(=O)NC(=O)NC2CCCCC2)cc1 [GLYBURIDE] | Not Active | Not Active | Not Active | Not Active | Not Active | Not Active | Not Active | Not Active | Not Active | – | – | Not Active | – | – | – | – | – | – | – | – |
| CCN1CCN(C(=O)N[C@@H](C(=O)N[C@@H]2C(=O)N3[C@@H]2SC(C)(C)[C@@H]3C(=O)O)c2ccccc2)C(=O)C1=O [PIPERACILLIN] | Not Active | Not Active | Not Active | Not Active | Not Active | Not Active | Not Active | Not Active | Not Active | – | – | Not Active | – | – | – | – | – | – | – | – |
| Clc1cc(Cl)c(OCC#CI)cc1Cl [HALOPROGIN] | Not Active | Not Active | Not Active | Not Active | Not Active | Not Active | Not Active | Not Active | – | Not Active | Not Active | Not Active | – | – | – | – | – | – | – | – |
| CC[C@H]1OC(=O)[C@H](C)[C@@H](O[C@H]2C[C@@](C)(OC)[C@@H](O)[C@H](C)O2)[C@H](C)[C@@H](O[C@@H]2O[C@H](C)C[C@H](N(C)C)[C@H]2O)[C@](C)(O)C[C@@H](C)C(=O)[C@H](C)[C@@H](O)[C@]1(C)O [ERYTHROMYCIN] | Not Active | Not Active | Not Active | Not Active | Not Active | Not Active | Not Active | Not Active | Not Active | – | – | Not Active | – | – | – | – | – | – | – | – |
| CC1(COc2ccc(CC3SC(=O)NC3=O)cc2)CCCCC1 (centres undefined) [CIGLITAZONE] | Not Active | Not Active | Not Active | Not Active | Not Active | Not Active | Not Active | Not Active | – | Not Active | Not Active | – | – | – | – | – | – | – | 26.9 µM | 9.48 µM |
| C=CCN1CC[C@]23c4c5ccc(O)c4O[C@H]2/C(=N/N=C2\CC[C@@]4(O)[C@H]6Cc7ccc(O)c8c7[C@@]4(CCN6CC=C)[C@H]2O8)CC[C@@]3(O)[C@H]1C5 [NALOXONAZINE] | Not Active | Not Active | Not Active | Not Active | Not Active | Not Active | Not Active | Not Active | Not Active | Not Active | Not Active | – | – | – | – | – | – | – | – | – |
